Data as given in patent publication US8173808B2, “Substituted naphthalenyl-pyrimidine compounds” (ArQule, Inc., priority 2009, dated 2012).

Legend:
Details in all cases: class symbol for inhibition
p70S6K = target: T1, p70S6K (Homo sapiens, UniProt P23443); assay: p70S6 kinase activity assay (HTRF); type: biochemical
T1 construct: purchased Upstate/Millipore
Protocol: p70S6K activity was assayed using Cisbio's homogeneous time-resolved fluorescence (HTRF®) technology. The extent of phosphorylation of the biotinylated peptide substrate STK-S3 is determined using a phospho-specific STK Antibody labeled with Eu^3+-cryptate and streptavidin-XL665 that will bind to the biotin on the peptide. When in close proximity, excitation of the Eu^3+ cryptate donor fluorophore results in fluorescence resonance energy transfer (FRET) to the XL665 acceptor fluorophore and the emission signal from XL665 is measured.
The assay is performed using reagents from the HTRF® KinEASE™-STK kit from Cisbio including enzymatic buffer (50 mM HEPES pH7, 0.02% NaN3, 0.01% BSA, and 0.1 mM Na3VO4), STK-S3 substrate-biotin, Eu^3+-Cryptate labeled STK antibody, Streptavidin-XL665, and detection buffer (50 mM HEPES pH 7, 0.1% BSA, 0.8M KF, and 20 mM EDTA). Test inhibitors and controls (staurosporine) are prepared at 5× the desired final concentration. Test compound (5.0 μL), p70S6 (10 μL) from Upstate/Millipore (final concentration is 2.5 ng/well), and 10 μL substrate/ATP are added to each well of a reaction plate (Corning 96-well half-area solid black nonbinding surface plate). All reaction components are diluted in enzymatic buffer supplemented with 2 mM MgCl2 and 1 mM DTT. The final concentration of STK-S3 substrate is 500 nM and the final concentration of ATP is 100 μM.

[1] = target: full length inactive AKT1 protein (Homo sapiens, UniProt P31749); assay: AKT activity; thermal shift binding assay
Chain of full length inactive AKT1 protein (P31749 whole entry): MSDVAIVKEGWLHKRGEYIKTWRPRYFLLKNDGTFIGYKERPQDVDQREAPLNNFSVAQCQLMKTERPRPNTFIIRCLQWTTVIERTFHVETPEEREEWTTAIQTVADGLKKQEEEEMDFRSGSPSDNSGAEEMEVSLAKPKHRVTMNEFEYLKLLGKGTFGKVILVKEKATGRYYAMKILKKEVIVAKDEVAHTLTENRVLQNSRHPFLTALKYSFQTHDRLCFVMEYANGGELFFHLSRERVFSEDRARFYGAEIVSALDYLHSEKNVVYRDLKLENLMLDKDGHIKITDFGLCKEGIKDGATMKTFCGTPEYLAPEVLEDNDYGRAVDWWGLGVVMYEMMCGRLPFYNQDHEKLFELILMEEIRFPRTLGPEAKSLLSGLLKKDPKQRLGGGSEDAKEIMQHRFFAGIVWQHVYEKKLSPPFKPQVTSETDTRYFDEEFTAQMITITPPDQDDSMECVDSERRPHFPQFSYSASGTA
Protocol: Aliquots of compounds in DMSO (1 μL @ 375 μM) were placed in the V bottom 96 well PCR plate, and incubated for 30 minutes with 24 μL of AKT1 protein in 25 mM TRIS buffer pH 7.5, 100 mM NaCl, 0.1% 2-mercaptoethanol, pre-mixed with environmentally sensitive fluorescent dye Sypro Orange (12.5×). The plates were centrifuged for […] @ 2000 rpm and 25° C. before the analysis on the IQ5 Real time PCR machine (Biorad). The thermal stability of the protein-ligand complex was monitored by changes in Sypro Orange fluorescence while subjecting the binding mixture to a temperature gradient of 30 to 75° C. at 1° C./min heating rate. Shifts in the protein melting temperature (ΔTm) greater than 0.6° C. compared to the protein alone were indicative of the inhibitor binding. Dissociation constants (Kd's) for the inhibitors were calculated from the melting curves as described in Mei-Chu-Lo et al., Anal.Biochem., 332: 153, 2004.

FGFR2 kinase = FGFR2 kinase fluorescent ELISA assay; type: biochemical
Protocol: A fluorescent ELISA assay was developed to identify and characterize inhibitors of FGFR2 kinase. This heterogeneous assay utilizes a biotinylated peptide with a tyrosine motif as a substrate and an anti-phospho-tyrosine antibody to measure phosphorylation of the substrate. The reaction is initiated by adding test compound, 37 uM Pyk2 substrate (Midwest Biotech, cat. #MBT2383) and 12.5 μM ATP (Roche, cat. #11 140 965 001), and 0.5 μM FGFR2 enzyme (Millipore, cat. #14-742) sequentially to a non-binding polypropylene V-well plate. All reagents are in assay buffer consisting of: 50 mM Tris-HCL, 0.02 mg/mL BSA, 10 mM MgCl2, 0.1 mM Na3VO4, 1 mM EGTA, 75 μM ATP, 0.01% NP-40, 2 mM DTT, 10% Glycerol. The reaction is incubated for 60 minutes. As the reaction proceeds, FGFR2 phosphorylates tyrosines in the peptide. The reaction mixture is then moved to a blocked streptavidin coated Nunc Maxisorb plate (coated with 100 ng streaptavidin from Pierce (cat #15-124) per well) allowing for the capture of the biotinylated peptide. Peptide is captured for 30 minutes at room temperature, the phosphorylation of peptide continues during this phase. The reaction is stopped by washing the Streptavidin plate 6 times with TBST. Phosphorylated peptide is detected by adding anti-phospho tyrosine antibody (purchased from Cell Signaling, cat. #9411, diluted 1:3000), unbound antibody is removed by washing 6 times with TBST. Secondary detection is performed using Alkaline Phosphatase tagged goat anti-mouse antibody (purchased from Pierce, cat. #31320, diluted 1:4000) for one hour. Unbound secondary antibody is removed by washing 6 times with TBST.
The fluorescent readout is initiated by the addition of Promega Attophos substrate (purchased from Promega; Kit catalog number: S1000, dilution=6 mg/10 mL), which when dephosphorylated by Alkaline phosphatase emits a fluorescent signal of […] when excited by a signal […]. This reading is done on the Perkin Elmer Envision system. Compounds which prevent the FGFR2 from phosphorylating the peptide result in a lower fluorescent signal. The signal is directly proportional to the activity of FGFR2 and compound inhibition of FGFR2 is monitored by a decrease in signal.

T1 sequence (P23443 whole entry): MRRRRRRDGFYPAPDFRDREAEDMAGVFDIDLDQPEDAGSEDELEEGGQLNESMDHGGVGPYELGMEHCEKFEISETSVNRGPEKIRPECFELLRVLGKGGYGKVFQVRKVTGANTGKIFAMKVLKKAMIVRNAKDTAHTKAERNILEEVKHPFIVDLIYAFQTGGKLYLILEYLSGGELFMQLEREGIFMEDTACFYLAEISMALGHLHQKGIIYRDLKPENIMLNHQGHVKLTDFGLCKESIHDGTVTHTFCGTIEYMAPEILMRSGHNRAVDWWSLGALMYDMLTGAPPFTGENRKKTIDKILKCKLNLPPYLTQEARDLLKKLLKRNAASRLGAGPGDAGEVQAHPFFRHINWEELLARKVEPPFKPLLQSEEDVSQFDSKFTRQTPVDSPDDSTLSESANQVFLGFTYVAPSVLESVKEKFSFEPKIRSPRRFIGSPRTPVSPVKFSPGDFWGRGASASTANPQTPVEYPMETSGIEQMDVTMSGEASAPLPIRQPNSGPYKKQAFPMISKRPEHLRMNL

Substance | p70S6 kinase activity (p70S6K) | AKT activity [1] | FGFR2 kinase activity (FGFR2 kinase)
2-acetamido-N-(3-(5-benzoyl-7H-pyrrolo[2,3-d]pyrimidin-4-ylamino)phenyl)acetamide [Compound 2a] | + (A positive sign indicates that inhibition is greater or equal to 25%) | − (A negative sign indicates that inhibition is less than 25%) | − (A negative sign indicates that inhibition is less than 25%)
3-acetamido-N-(3-(5-benzoyl-7H-pyrrolo[2,3-d]pyrimidin-4-ylamino)phenyl)propanamide [Compound 4a] | + (A positive sign indicates that inhibition is greater or equal to 25%) | − (A negative sign indicates that inhibition is less than 25%) | − (A negative sign indicates that inhibition is less than 25%)
(4-(3-aminophenylamino)-7H-pyrrolo[2,3-d]pyrimidin-5-yl)(phenyl)methanone [Compound 5a] | + (A positive sign indicates that inhibition is greater or equal to 25%) | + (A positive sign indicates that inhibition is greater or equal to 25%) | − (A negative sign indicates that inhibition is less than 25%)
N-(3-(3-benzoyl-1H-indol-4-ylamino)phenyl)-3-(pyridin-3-yl)propanamide [Compound 1a] | + (A positive sign indicates that inhibition is greater or equal to 25%) | + (A positive sign indicates that inhibition is greater or equal to 25%) | − (A negative sign indicates that inhibition is less than 25%)
N-(3-(5-benzoyl-7-methyl-7H-pyrrolo[2,3-d]pyrimidin-4-ylamino)phenyl)acetamide [Compound 6a] | − (A negative sign indicates that inhibition is less than 25%) | + (A positive sign indicates that inhibition is greater or equal to 25%) | − (A negative sign indicates that inhibition is less than 25%)
N-(3-(5-benzoyl-7H-pyrrolo[2,3-d]pyrimidin-4-ylamino)phenyl)-2-(dimethylamino)acetamide [Compound 7a] | + (A positive sign indicates that inhibition is greater or equal to 25%) | − (A negative sign indicates that inhibition is less than 25%) | − (A negative sign indicates that inhibition is less than 25%)
N-(3-(5-benzoyl-7H-pyrrolo[2,3-d]pyrimidin-4-ylamino)phenyl)-4-(dimethylamino)butanamide [Compound 3a] | + (A positive sign indicates that inhibition is greater or equal to 25%) | − (A negative sign indicates that inhibition is less than 25%) | − (A negative sign indicates that inhibition is less than 25%)
N-(3-(5-benzoyl-7H-pyrrolo[2,3-d]pyrimidin-4-ylamino)phenyl)-5-(pyrrolidin-1-yl)pentanamide [Compound 8a] | − (A negative sign indicates that inhibition is less than 25%) | + (A positive sign indicates that inhibition is greater or equal to 25%) | + (A positive sign indicates that inhibition is greater or equal to 25%)
N-(3-(5-benzoyl-7H-pyrrolo[2,3-d]pyrimidin-4-ylamino)phenyl)acetamide [Compound 9a] | − (A negative sign indicates that inhibition is less than 25%) | + (A positive sign indicates that inhibition is greater or equal to 25%) | − (A negative sign indicates that inhibition is less than 25%)
N^1-(3-(5-benzoyl-7H-pyrrolo[2,3-d]pyrimidin-4-ylamino)phenyl)succinamide [Compound 10a] | − (A negative sign indicates that inhibition is less than 25%) | − (A negative sign indicates that inhibition is less than 25%) | + (A positive sign indicates that inhibition is greater or equal to 25%)
